Consider 22 compounds from BindingDB's records for doi:10.1016/s0960-894x(02)00300-1 (University of Illinois At Chicago, 2002).

The target of this experiment is T1, Dimer of Gag-Pol polyprotein [501-599,Q508K,L534I,L564I,C568A,C596A] (Human immunodeficiency virus 1, UniProt P03367, C568A/C596A/L534I/L564I/Q508K).
T1 construct: 501-599
Nature of the experiment: Protease Inhibition Assay. To be noted: pH 6.4; 25 °C. The procedure: The Ki values were determined using fluorogenic substrate, 2-(aminobenzoyl)-Thr-Ile-Nle-Phe(p-NO2)-Gln-ArgNH2. A standard curve relating changes in fluorescent intensity to changes in concentration of product was used to convert fluorescent changes into molar velocities. The amount of cleavage was determined by HPLC.

A value given as a limit tells only on which side of the number the result lay.

The Ki is the equilibrium dissociation constant of an inhibitor or competing ligand from its target. A high value points to lower affinity. Consider `O=C(N[C@@H](Cc1ccccc1)[C@H](O)CN1CCCCCCCCCCCC(c2ccccc2)OC1=O)O[C@H]1CO[C@H]2OCC[C@H]21` (stereo partly drawn) [(3R,3aS,6aR)-hexahydrofuro[2,3-b]furan-3-yl N-[(2S,3R)-3-hydroxy-4-(2-oxo-15-phenyl-1-oxa-3-azacyclopentadecan-3-yl)-1-phenylbutan-2-yl]carbamate], for which the affinity corresponds to a Ki of 357 nM.
Compound `O=C(N[C@@H](Cc1ccccc1)[C@H](O)CN1CCCCCCCCC=CCCOC1=O)O[C@H]1CO[C@H]2OCC[C@H]21` [(3R,3aS,6aR)-hexahydrofuro[2,3-b]furan-3-yl N-[(2S,3R)-3-hydroxy-4-(2-oxo-1-oxa-3-azacyclopentadec-12-en-3-yl)-1-phenylbutan-2-yl]carbamate] displayed a Ki of 88 nM.
Take `C=CCCCCCCCCOC(=O)N(C[C@@H](O)[C@H](Cc1ccccc1)NC(=O)O[C@H]1CO[C@H]2OCC[C@H]21)C(C)CC=C` (stereo partly drawn) [dec-9-en-1-yl N-[(2R,3S)-3-({[(3R,3aS,6aR)-hexahydrofuro[2,3-b]furan-3-yloxy]carbonyl}amino)-2-hydroxy-4-phenylbutyl]-N-(pent-4-en-2-yl)carbamate]: the Ki is above 1000 nM.
The same measure for `CC1CCCCCCCCCCOC(=O)N(C[C@@H](O)[C@H](Cc2ccccc2)NC(=O)O[C@H]2CO[C@H]3OCC[C@H]32)C1` (stereo partly drawn) [(3R,3aS,6aR)-hexahydrofuro[2,3-b]furan-3-yl N-[(2S,3R)-3-hydroxy-4-(5-methyl-2-oxo-1-oxa-3-azacyclopentadecan-3-yl)-1-phenylbutan-2-yl]carbamate]: 6.1 nM; for `O=C(N[C@@H](Cc1ccccc1)[C@H](O)CN1CCCCCCCCCCCCOC1=O)O[C@H]1CO[C@H]2OCC[C@H]21` [(3R,3aS,6aR)-hexahydrofuro[2,3-b]furan-3-yl N-[(2S,3R)-3-hydroxy-4-(2-oxo-1-oxa-3-azacyclopentadecan-3-yl)-1-phenylbutan-2-yl]carbamate]: 14 nM.
The same measure for `O=C(N[C@@H](Cc1ccccc1)[C@H](O)CN1C/C=C\CCCCCCCCOC1=O)O[C@H]1CO[C@H]2OCC[C@H]21` [(3R,3aS,6aR)-hexahydrofuro[2,3-b]furan-3-yl N-[(2S,3R)-3-hydroxy-4-[(5Z)-2-oxo-1-oxa-3-azacyclotetradec-5-en-3-yl]-1-phenylbutan-2-yl]carbamate]: 125 nM; for `C=CCCCCCCCCN(C[C@@H](O)[C@H](Cc1ccccc1)NC(=O)O[C@H]1CO[C@H]2OCC[C@H]21)C(=O)OCCC=C` [but-3-en-1-yl N-[(2R,3S)-3-({[(3R,3aS,6aR)-hexahydrofuro[2,3-b]furan-3-yloxy]carbonyl}amino)-2-hydroxy-4-phenylbutyl]-N-(dec-9-en-1-yl)carbamate]: above 1000 nM; for `CC1CC=CCCCCCCCOC(=O)N(C[C@@H](O)[C@H](Cc2ccccc2)NC(=O)O[C@H]2CO[C@H]3OCC[C@H]32)C1` (stereo partly drawn) [(3R,3aS,6aR)-hexahydrofuro[2,3-b]furan-3-yl N-[(2S,3R)-3-hydroxy-4-(5-methyl-2-oxo-1-oxa-3-azacyclopentadec-7-en-3-yl)-1-phenylbutan-2-yl]carbamate]: 11 nM.
For `O=C(N[C@@H](Cc1ccccc1)[C@H](O)CN1CCCCCCCCCCC(c2ccccc2)OC1=O)O[C@H]1CO[C@H]2OCC[C@H]21` (stereo partly drawn) [(3R,3aS,6aR)-hexahydrofuro[2,3-b]furan-3-yl N-[(2S,3R)-3-hydroxy-4-(2-oxo-14-phenyl-1-oxa-3-azacyclotetradecan-3-yl)-1-phenylbutan-2-yl]carbamate], the inhibition constant (Ki) is 189 nM.
The compound `C=CCCCCCCCC(OC(=O)N(CC=C)C[C@@H](O)[C@H](Cc1ccccc1)NC(=O)O[C@H]1CO[C@H]2OCC[C@H]21)c1ccccc1` (stereo partly drawn) [(3R,3aS,6aR)-hexahydrofuro[2,3-b]furan-3-yl N-[(2S,3R)-3-hydroxy-1-phenyl-4-({[(1-phenyldec-9-en-1-yl)oxy]carbonyl}(prop-2-en-1-yl)amino)butan-2-yl]carbamate] displayed a Ki above 1000 nM.
The same measure for `O=C(N[C@@H](Cc1ccccc1)[C@H](O)CN1CCCCCCCCC=CCC(c2ccccc2)OC1=O)O[C@H]1CO[C@H]2OCC[C@H]21` (stereo partly drawn) [(3R,3aS,6aR)-hexahydrofuro[2,3-b]furan-3-yl N-[(2S,3R)-3-hydroxy-4-(2-oxo-15-phenyl-1-oxa-3-azacyclopentadec-12-en-3-yl)-1-phenylbutan-2-yl]carbamate]: 167 nM.
`O=C(N[C@@H](Cc1ccccc1)[C@H](O)CN1C/C=C\CCCCCCCC(c2ccccc2)OC1=O)O[C@H]1CO[C@H]2OCC[C@H]21` (stereo partly drawn) [(3R,3aS,6aR)-hexahydrofuro[2,3-b]furan-3-yl N-[(2S,3R)-3-hydroxy-4-[(5Z)-2-oxo-14-phenyl-1-oxa-3-azacyclotetradec-5-en-3-yl]-1-phenylbutan-2-yl]carbamate]: the Ki amounted to 229 nM.
To `C=CCCCCCCC(OC(=O)N(CCCCC=C)C[C@@H](O)[C@H](Cc1ccccc1)NC(=O)O[C@H]1CO[C@H]2OCC[C@H]21)c1ccccc1` (stereo partly drawn) [(3R,3aS,6aR)-hexahydrofuro[2,3-b]furan-3-yl N-[(2S,3R)-4-[hex-5-en-1-yl({[(1-phenylnon-8-en-1-yl)oxy]carbonyl})amino]-3-hydroxy-1-phenylbutan-2-yl]carbamate] belongs 444 nM.
`O=C(N[C@@H](Cc1ccccc1)[C@H](O)CN1CCCCCCCCCCCCC(c2ccccc2)OC1=O)O[C@H]1CO[C@H]2OCC[C@H]21` (stereo partly drawn) [(3R,3aS,6aR)-hexahydrofuro[2,3-b]furan-3-yl N-[(2S,3R)-3-hydroxy-4-(2-oxo-16-phenyl-1-oxa-3-azacyclohexadecan-3-yl)-1-phenylbutan-2-yl]carbamate] displayed a Ki of 268 nM.
The same measure for `C=CCCCCCCCCN(C[C@@H](O)[C@H](Cc1ccccc1)NC(=O)O[C@H]1CO[C@H]2OCC[C@H]21)C(=O)OC(CC=C)c1ccccc1` (stereo partly drawn) [(3R,3aS,6aR)-hexahydrofuro[2,3-b]furan-3-yl N-[(2S,3R)-4-[dec-9-en-1-yl({[(1-phenylbut-3-en-1-yl)oxy]carbonyl})amino]-3-hydroxy-1-phenylbutan-2-yl]carbamate]: above 1000 nM; for `CC1CCCCCCCCCCCOC(=O)N1C[C@@H](O)[C@H](Cc1ccccc1)NC(=O)O[C@H]1CO[C@H]2OCC[C@H]21` (stereo partly drawn) [(3R,3aS,6aR)-hexahydrofuro[2,3-b]furan-3-yl N-[(2S,3R)-3-hydroxy-4-(4-methyl-2-oxo-1-oxa-3-azacyclopentadecan-3-yl)-1-phenylbutan-2-yl]carbamate]: 30 nM.
To `O=C(N[C@@H](Cc1ccccc1)[C@H](O)CN1CCCCC=CCCCCCCC(c2ccccc2)OC1=O)O[C@H]1CO[C@H]2OCC[C@H]21` (stereo partly drawn) [(3R,3aS,6aR)-hexahydrofuro[2,3-b]furan-3-yl N-[(2S,3R)-3-hydroxy-4-(2-oxo-16-phenyl-1-oxa-3-azacyclohexadec-8-en-3-yl)-1-phenylbutan-2-yl]carbamate] belongs 162 nM; to `C=CCCCCCCCCOC(=O)N(CC=C)C[C@@H](O)[C@H](Cc1ccccc1)NC(=O)O[C@H]1CO[C@H]2OCC[C@H]21` [dec-9-en-1-yl N-[(2R,3S)-3-({[(3R,3aS,6aR)-hexahydrofuro[2,3-b]furan-3-yloxy]carbonyl}amino)-2-hydroxy-4-phenylbutyl]-N-(prop-2-en-1-yl)carbamate], above 1000 nM.
Regarding `CC1CC=CCCCCCCCCOC(=O)N1C[C@@H](O)[C@H](Cc1ccccc1)NC(=O)O[C@H]1CO[C@H]2OCC[C@H]21` (stereo partly drawn) [(3R,3aS,6aR)-hexahydrofuro[2,3-b]furan-3-yl N-[(2S,3R)-3-hydroxy-4-(4-methyl-2-oxo-1-oxa-3-azacyclopentadec-6-en-3-yl)-1-phenylbutan-2-yl]carbamate], the affinity, expressed as Ki, was 53 nM.
`C=CCCCCCCCOC(=O)N(CC(C)CC=C)C[C@@H](O)[C@H](Cc1ccccc1)NC(=O)O[C@H]1CO[C@H]2OCC[C@H]21` (stereo partly drawn) [non-8-en-1-yl N-[(2R,3S)-3-({[(3R,3aS,6aR)-hexahydrofuro[2,3-b]furan-3-yloxy]carbonyl}amino)-2-hydroxy-4-phenylbutyl]-N-(2-methylpent-4-en-1-yl)carbamate]: the Ki was above 1000 nM.
For the compound `CC(C)(C)NC(=O)[C@@H]1C[C@@H]2CCCC[C@@H]2CN1C[C@@H](O)[C@H](Cc1ccccc1)NC(=O)O[C@H]1CO[C@H]2OCC[C@H]21` [(3R,3aS,6aR)-hexahydrofuro[2,3-b]furan-3-yl N-[(2S,3R)-4-[(3S,4aS,8aS)-3-(tert-butylcarbamoyl)-decahydroisoquinolin-2-yl]-3-hydroxy-1-phenylbutan-2-yl]carbamate], the Ki amounted to 2 nM.
In turn, `O=C(N[C@@H](Cc1ccccc1)[C@H](O)CN1CCCCCCCCCCCOC1=O)O[C@H]1CO[C@H]2OCC[C@H]21` [(3R,3aS,6aR)-hexahydrofuro[2,3-b]furan-3-yl N-[(2S,3R)-3-hydroxy-4-(2-oxo-1-oxa-3-azacyclotetradecan-3-yl)-1-phenylbutan-2-yl]carbamate] showed an inhibition constant (Ki) of 80 nM.
